Laboratory results from patent US12496267B2, “Extract of organic humified materials” (priority 2019, dated 2025).

Assays:
IL-1β = experiment: Inflammation: reconstructed human epidermis/PBMC, MSD U-PLEX, IL-1β; format: cell-based
Method: (§1) Potential immune modulatory effects were determined on reconstructed human epidermis (RHE) using a 3D Skin Modell (Cell systems). In the first step the skin patches are stimulated with specific controls and stimuli for a defined time period. In this context it had to be considered that different stimuli require different incubation times. The incubation with heat inactivated C.acnes (10^7 cells/approach) as well as the direct incubation with the test substances (AHE/FA/BIS) was performed for 16h at 37° C. The AHE test substances comprised AHE solutions, comprising either 1%, 2% or 5% AHE in PBS, generated as described in Example 8. The incubation with the positive control (5% SDS) was performed for 20 min (37° C.). After the primary stimulation step skin patches were washed (PBS 3×300 μl) and subjected to a regeneration phase (24h/37° C.) in presence of the indicated substances (CM/AHE/FA/CH/BIS). After this incubation phase the culture medium of each approach was isolated and used to stimulate human PBMCs. Hereby 100 μl of the RHE culture was added cultures of human PBMCs (1×10^6 cells in 300 μl culture medium) and incubated for additional 16 h (37° C.). After this incubation step, PBMCs were separated by centrifugation and the supernatant was saved for the MSD multiplexing platform. In parallel the cells of the RHE culture were subjected to cell lysis (1% SDS, 30 min/4° C. agitation). Cell extracts were saved for the MSD multiplexing platform.
(§2) Using the MSD U-PLEX it is possible to create an individualized multiplex assays for any combination of analytes. Hereby biotinylated capture reagents are coupled to U-PLEX Linkers. The U-PLEX Linkers then self-assemble onto unique spots on the U-PLEX plate. After analytes in the sample bind to the capture reagents, detection antibodies conjugated with electro-chemiluminescent labels (MSD GOLD SULFO-TAG) bind to the analytes to complete the sandwich immunoassay. Using this technology, the following markers were immobilized:
(§3) U-PLEX Human IFN-γ, U-PLEX Human IL-16, U-PLEX Human IL-2, U-PLEX Human IL-4, U-PLEX Human IL-5, U-PLEX Human IL-6, U-PLEX Human IL-8, U-PLEX Human IL-12p70, U-PLEX Human IL-13, U-PLEX Human IL-17A, U-PLEX Human IL-17F, U-PLEX Human IL-22, U-PLEX Human IL-23, U-PLEX Human TNF-α. U-PLEX Human TGF-β1. All steps were performed according to the supplier's protocol.
(§4) As described above, the Reconstructed human epidermis (RhE) was stimulated with the indicated substances and stimuli (Sample # Description, Tables 11-21) for 16 h. Upon this step the RhE was washed and in incubated in a second line with the indicated substances or culture medium. As controls, the RhE was treated in the first line with PBS and subsequently with culture medium. As further controls the PBMCs were treated with culture medium alone, with heat inactivated C. acnes and with pooled supernantant (SN) of the RhEs before stimulation. For Mesoscale analysis, the supernatant of the PBMC culture (PBMCs) was compared with a cell extract of the RhE prepared after the individual incubation steps (RhEs) and the supernatant of the RhEs after the stimulation steps (SN RhEs). RhE treated in the first and second line with culture medium (Rhe NC) can be used as negative control in all settings.

TNFα = experiment: Inflammation: reconstructed human epidermis/PBMC, MSD U-PLEX, TNFα; format: cell-based
Method: as §1, §2, §3, §4

IL-12p70 = experiment: Inflammation: reconstructed human epidermis/PBMC, MSD U-PLEX, IL-12p70; format: cell-based
Method: as §1, §2, §3
As described above, the Reconstructed human epidermis (RhE) was stimulated with the indicated substances and stimuli (Sample # Description, Tables 11-21) for 16 h. Upon this step the RhE was washed and in incubated in a second line with the indicated substances or culture medium. As controls, the RhE was treated in the first line with PBS and subsequently with culture medium. […]

IL-8 = experiment: Inflammation: reconstructed human epidermis/PBMC, MSD U-PLEX, IL-8; format: cell-based
Method: as §1, §2, §3, §4

IFN-γ = experiment: Inflammation: reconstructed human epidermis/PBMC, MSD U-PLEX, IFN-γ; format: cell-based
Method: as §1, §2, §3, §4

IL-13 = experiment: Inflammation: reconstructed human epidermis/PBMC, MSD U-PLEX, IL-13; format: cell-based; conditions: PBMCs (supernatant)
Method: as §1
as §2, with “immobilized: […]” for “immobilized:”

IL-6 = experiment: Inflammation: reconstructed human epidermis/PBMC, MSD U-PLEX, IL-6; format: cell-based
Method: as §1, §2, §3, §4

IL-5 = experiment: Inflammation: reconstructed human epidermis/PBMC, MSD U-PLEX, IL-5; format: cell-based
Method: as §1, §2, §3, §4

IL-4 = experiment: Inflammation: reconstructed human epidermis/PBMC, MSD U-PLEX, IL-4; format: cell-based; conditions: PBMCs (supernatant)
Method: as §1
as §2, with “immobilized: […]” for “immobilized:”

Keratin 16 = experiment: Skin barrier: Western blot of Cytokeratin 16 in HaCat 3-dimensional culture; format: cell-based, human
Method: FIG. 14: Western Blot Analysis with anti-Cytokeratin 16 was performed as described. The primary antibody (Keratin 16 (KRT16): Cusabio Technology CSB-PA012515LA01Hu) was used in a dilution of 1:500. After the primary incubation step binding of the primary antibody was visualized with an anti-rabbit-IG conjugated to horse raddish peroxidase. Detection of Cytokeratin-16 with an apparent MW of 51 kDa was visualized using the ECL Technology in combination with a BioRad Gel documentation system.
(§5) To determine the effects of the Alpine Heilmoor Extract on the stability of the membrane barrier, human Keratinocytes (HaCat) were analysed in a 3-dimensional cell culture system. Hereby, cells (5×10^4/insert) were seeded on culture inserts of the system and cultivated in 24 well plates for 14 days with medium exchange in 3-day intervals and permanent monitoring of the TEER value. Reaching a constant TEER value cells were stimulated with heat inactivated C. acnes (10^7 cells/well) for 16 h. Subsequently, cells were washed and incubated with described 2nd line substances (i.e. AHE solutions, comprising either 1%, 2% or 5% AHE in PBS, generated as described in Example 8) for 24 hours. […]
(§6) Effects of the indicated stimuli/second line substances were evaluated by determination of the expression levels of membrane markers Cytokeratin 10/Cytokeratin 16/Fillagrin and Ki67. […]

Keratin 10 = experiment: Skin barrier: Western blot of Cytokeratin 10 in HaCat 3-dimensional culture; format: cell-based, human; conditions: positive control EGF
Method: FIG. 13: Western Blot Analysis with anti-Cytokeratin 10 was performed as described. The primary antibody (Keratin 10 (KRT10): Cusabio Technology CSB-PA445987) was used in a dilution of 1:1000. After the primary incubation step binding of the primary antibody was visualized with an anti-rabbit-IG conjugated to horse raddish peroxidase. Detection of Cytokeratin-10 with an apparent MW of 58 kDa was visualized using the ECL Technology in combination with a BioRad Gel documentation system.
as §5, §6

Paxillin = experiment: Western blot of Paxillin in scratched HaCat cells; format: cell-based, human; conditions: comparators: EGF; Fulvic Acid (1% per FIG. 10)
Method: (§7) FIG. 10: HaCat cells were cultured as described. 72h after mechanical disruption, cells were lysed (PBS/1% Triton X100, 30 min, 4° C.) and subsequently subjected to SDS-PAGE/Western Blotting. Cell adhesion markers were determined with specific antibodies directed towards cell adhesion markers E-Cadherin and Paxillin. Reactivities were normalized using an antibody directed against the housekeeping protein Actin.
as §7, with “11:” for “10:”, “Paxillin.” for “Paxillin. Reactivities were normalized using an antibody directed against the housekeeping protein Actin.”
A human Keratinocyte cell line (HaCat) was cultivated in 6 well plates to reach a dense cell layer. Subsequently the monolayer was injured with a mechanical device leading to a cross formed scratch in the monolayer. […] The ingrowth of cells was monitored/documented for another 72 hours to the point where the cross formed injury of the monolayer was recovered with cells. […] Subsequently cell extracts were analysed by SDS-PAGE/Western Blotting using antibodies directed towards the […] markers E-Cadherin and Paxillin (FIG. 10 and FIG. 11). […]

[1] = system: human colorectal cells (CaCo2); experiment: Membrane barrier enhancement: TEER of CaCo2 3-dimensional culture; format: cell-based; conditions: EGF
Method: To determine the effects of the test substances on the stability on the human gut barrier, human colorectal cells (CaCo2) were analysed in a 3-diemsional cell culture system. Cells (5×10^4/insert) were seeded on culture inserts of the system and cultivated in 24 well plates for 14 days with medium exchange in 3-day intervals and permanent monitoring of the TEER value. […] Subsequently, cells were washed and incubated with described 2nd line substances (i.e. AHE solutions, comprising either 1%, 2% or 5% AHE in PBS, generated as describe din Example 8) for 24 hours. After this step cells were washed and cell extracts were prepared by incubation with PBS/1% Triton X100. Cell extracts are ready for SDS-PAGE/Western Blotting.

[2] = system: human Keratinocyte cell line (HaCat); experiment: Wound healing: scratch of HaCat keratinocyte monolayer, regeneration over 72 h; format: cell-based; conditions: EGF 10 ng/ml; within 72 hours
Method: A human Keratinocyte cell line (HaCat) was cultivated in 6 well plates to reach a dense cell layer. Subsequently the monolayer was injured with a mechanical device leading to a cross formed scratch in the monolayer. Upon scratching cells were washed once with PBS and treated with the test substances outlined above as well as with appropriate controls. The ingrowth of cells was monitored/documented for another 72 hours to the point where the cross formed injury of the monolayer was recovered with cells. At that point cells were washed and harvested. Cell extracts were generated by treatment with PBS/1% Triton X100 (30 min on ice). Subsequently cell extracts were analysed by SDS-PAGE/Western Blotting using antibodies directed towards the […] markers E-Cadherin and Paxillin (FIG. 10 and FIG. 11).
Cells were treated with AHE solutions, comprising either 1% or 5% AHE in PBS (phosphate buffered saline). The dry extract was generated as described in Example 1, and then dissolved in PBS at 37° C. for 72 hours using a weight/volume ratio of 0.1 g/mL, 0.2 g/mL or 0.5 g/mL, respectively.
For comparison, cells were also treated with Fulvic Acid and Charcoal, EGF was used as positive control, Medium without active substance was used as negative control.

[3] = PBMCs (supernatant), RhE C. acnes-stimulated, then substance, 1%
[4] = PBMCs (supernatant), RhE without C. acnes, 1%
[5] = SN RhEs, RhE C. acnes-stimulated, then substance, 1%
[6] = SN RhEs, RhE without C. acnes, 1%
[7] = RhEs (cell extract), RhE without C. acnes, 1%
[8] = RhE C. acnes-stimulated, then substance, 1%
[9] = PBMCs (supernatant), RhE 5% SDS, then culture medium
[10] = SN RhEs, RhE 5% SDS, then culture medium
[11] = RhE 5% SDS, then culture medium

CC(C)=CCC[C@](C)(O)C1CC=C(C)CC1 (stereo partly shown) [Bisabolol]
IL-1β concentration (IL-1β; [3]): 1525 pg/mL | IL-1β concentration (IL-1β; [4]): 1277 pg/mL | IL-1β concentration (IL-1β; [5]): 8.5 pg/mL | IL-1β concentration (IL-1β; [6]): 5.4 pg/mL | TNFα concentration (TNFα; [3]): 51.6 pg/mL | TNFα concentration (TNFα; [4]): 29.8 pg/mL | TNFα concentration (TNFα; [5]): 8.6 pg/mL | TNFα concentration (TNFα; [6]): 17.1 pg/mL | IL-12p70 concentration (IL-12p70; [3]): 69.9 pg/mL | IL-12p70 concentration (IL-12p70; [4]): 51.3 pg/mL | IL-12p70 concentration (IL-12p70; [5]): 3.3 pg/mL | IL-8 concentration (IL-8; [3]): 43765.9 pg/mL | IL-8 concentration (IL-8; [4]): 44123.3 pg/mL | IL-8 concentration (IL-8; RhEs (cell extract), RhE C. acnes-stimulated, then substance, 1%): 58.1 pg/mL | IL-8 concentration (IL-8; [7]): 68.9 pg/mL | IL-8 concentration (IL-8; [5]): 4317.3 pg/mL | IL-8 concentration (IL-8; [6]): 2459.3 pg/mL | INF-y concentration (IFN-γ; [3]): 124.4 pg/mL | INF-y concentration (IFN-γ; [4]): 90.5 pg/mL | INF-y concentration (IFN-γ; [7]): 8.3 pg/mL | INF-y concentration (IFN-γ; [5]): 13.9 pg/mL | IL-13 concentration (IL-13; [8]): 186.6 pg/mL | IL-13 concentration (IL-13; RhE without C. acnes, 1%): 157.9 pg/mL | IL-6 concentration (IL-6; [3]): 13038.0 pg/mL | IL-6 concentration (IL-6; [4]): 12302.5 pg/mL | IL-6 concentration (IL-6; [5]): 75.1 pg/mL | IL-6 concentration (IL-6; [6]): 30.8 pg/mL | IL-5 concentration (IL-5; [3]): 24.1 pg/mL | IL-5 concentration (IL-5; [4]): 18.2 pg/mL | IL-5 concentration (IL-5; [5]): 1.1 pg/mL | IL-5 concentration (IL-5; [6]): 0.0 pg/mL | IL-4 concentration (IL-4; [8]): 10.1 pg/mL | IL-4 concentration (IL-4; RhE without C. acnes, 1%): 9.1 pg/mL

CCCCCCCCCCCCOS(=O)(=O)[O-].[Na+] [Rhe PC, SDS]
IL-1β concentration (IL-1β; [9]): 1133 pg/mL | TNFα concentration (TNFα; [9]): 24.0 pg/mL | IL-12p70 concentration (IL-12p70; [9]): 63.0 pg/mL | IL-8 concentration (IL-8; [9]): 43111.6 pg/mL | IL-8 concentration (IL-8; RhEs (cell extract), RhE 5% SDS, then culture medium): 33.5 pg/mL | IL-8 concentration (IL-8; [10]): 77.2 pg/mL | INF-y concentration (IFN-γ; [9]): 114.7 pg/mL | IL-13 concentration (IL-13; [11]): 220.6 pg/mL | IL-6 concentration (IL-6; [9]): 12909.3 pg/mL | IL-6 concentration (IL-6; [10]): 0.3 pg/mL | IL-5 concentration (IL-5; [9]): 25.4 pg/mL | IL-5 concentration (IL-5; [10]): 1.0 pg/mL | IL-4 concentration (IL-4; [11]): 9.0 pg/mL

EGF: positive control (10 ng/ml in Example 8)
Cytokeratin 16 specific band (51 kDa) (Keratin 16; EGF): detected | anti-Cytokeratin 16 reactive protein complex at about 75 kDa (Keratin 16; positive control EGF): visible | Cytokeratin 10 band (58 kDa) (Keratin 10): induction | expression of cell adhesion molecule Paxillin (Paxillin): also observed | TEER value ([1]; D15 (1 d after stimulation with IL1alpha/TNF-alpha)): 4800 Ω/cm^2 | TEER value ([1]; D15 (non stimulated controls)): 4000 Ω/cm^2 | TEER value ([1]; D17 (after regeneration phase with extracts: non stimulated controls)): 7200 Ω/cm^2 | TEER value ([1]; D17 (after regeneration phase with extracts: stimulated skin)): 9600 Ω/cm^2 | regeneration of scratched keratinocyte monolayer [2]: regenerated well
